Test system: NBD1/3D
Test: Aggregation analysis using differential static light scattering (DSLS), NBD1 thermal stability
Type: binding, Human
Settings: ΔTagg versus DMSO control; compound at 100 μM
Method in brief: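 Thermal stabilisation reported as ΔTagg, i.e. aggregation temperature relative to averaged DMSO wells. Tagg came from the inflection of differential static light scattering imaged 25–70 °C while NBD1 (0.2 mg/ml, Tris pH 7.6 buffer containing ATP, MgCl2, DTT, glycerol) was ramped 1 °C/min.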

Structure (SMILES) | DSLS NBD1/3D Human Stability delta-T (° C.) @ 100 (μM)
CC(O)(c1cccc(CC2SC(=O)NC2=O)c1)c1cnc(-c2cccc(Oc3c(F)cc4[nH]ccc4c3F)c2)[nH]1 (stereo not shown) [Example 211, 5-(3-(1-(2-(3-((4,6-Difluoro-1H-indol-5-yl)oxy)phenyl)-1H-imidazol-5-yl)-1-hydroxyethyl)benzyl)thiazolidine-2,4-dione] | B (B: 5-10° C.)
Cc1c(Oc2ccc(F)c(-c3nc(C(C)(O)c4cc(Cl)cc(CCC(=O)O)c4)c[nH]3)c2)c(F)cc2[nH]ccc12 (stereo not shown) [Example 189, 3-(3-chloro-5-(1-(2-(2-fluoro-5-((6-fluoro-4-methyl-1H-indol-5-yl)oxy)phenyl)-1H-imidazol-4-yl)-1-hydroxyethyl)phenyl) propanoic acid] | B (B: 5-10° C.)
Cc1c(Oc2ccc(F)c(-c3ncc(C(C)c4cccc([C@@H]5C[C@H]5C(=O)O)c4F)[nH]3)c2)c(F)cc2[nH]ccc12 (relative stereo) [Example 139E, trans-2-(2-fluoro-3-(1-(2-(2-fluoro-5-((6-fluoro-4-methyl-1H-indol-5-yl)oxy)phenyl)-1H-imidazol-5-yl)ethyl)phenyl)cyclopropane-1-carboxylic acid] | B (B: 5-10° C.)
CC(O)(c1cccc(CCC(=O)O)c1)c1cnc(-c2cc(Oc3c(F)cc4[nH]ccc4c3C(F)F)ccc2F)[nH]1 (stereo not shown) [Example 191, 3-(3-(1-(2-(5-((4-(difluoromethyl)-6-fluoro-1H-indol-5-yl)oxy)-2-fluorophenyl)-1H-imidazol-5-yl)-1-hydroxyethyl)phenyl) propanoic acid] | B (B: 5-10° C.)
Cc1c(Oc2ccc(F)c(-c3ncc(C4(c5cc(F)cc(CCC(=O)O)c5)CC4)[nH]3)c2)c(F)cc2[nH]ccc12 [Example 156, 3-(3-fluoro-5-(1-(2-(2-fluoro-5-((6-fluoro-4-methyl-1H-indol-5-yl)oxy)phenyl)-1H-imidazol-5-yl)cyclopropyl)phenyl)propanoic acid] | B (B: 5-10° C.)
O=C(O)CCc1cccc(Cc2cnc(-c3cccc(Oc4c(F)cc5[nH]ccc5c4SC(F)(F)F)c3)[nH]2)c1 [Example 102, 3-(3-((2-(3-((6-fluoro-4-((trifluoromethyl)thio)-1H-indol-5-yl)oxy)phenyl)-1H-imidazol-5-yl)methyl)phenyl)propanoic acid] | B (B: 5-10° C.)
CO[C@]1(C)C[C@@](c2cccc(CCC(=O)O)c2)(c2c[nH]c(-c3cc(Oc4c(F)cc5[nH]ccc5c4S(C)(=O)=O)ccc3F)n2)C1 [Example 71, 3-(3-((1r,3r)-1-(2-(2-fluoro-5-((6-fluoro-4-(methylsulfonyl)-1H-indol-5-yl)oxy)phenyl)-1H-imidazol-4-yl)-3-methoxy-3-methylcyclobutyl)phenyl)propanoic acid] | A (A: T ≥ 10° C.)
CS(=O)(=O)c1c(Oc2ccc(F)c(-c3nc(C4(c5cccc(CCC(=O)O)c5)CCCC4)c[nH]3)c2)c(F)cc2[nH]ccc12 [Example 47, 3-(3-(1-(2-(2-fluoro-5-((6-fluoro-4-(methylsulfonyl)-1H-indol-5-yl)oxy)phenyl)-1H-imidazol-5-yl)cyclopentyl)phenyl)propanoic acid] | A (A: T ≥ 10° C.)
Cc1c(Oc2ccc(F)c(-c3nc(C4(c5cccc(CCC(=O)O)c5)CCOC(C)C4)c[nH]3)c2)c(F)cc2[nH]ccc12 (single isomer, unassigned) [Example 154, 3-(3-(4-(2-(2-fluoro-5-((6-fluoro-4-methyl-1H-indol-5-yl)oxy)phenyl)-1H-imidazol-4-yl)-2-methyltetrahydro-2H-pyran-4-yl)phenyl)propanoic acid] | A (A: T ≥ 10° C.)
CP(C)(=O)c1c(Oc2cccc(-c3nc(Cc4cccc(CCC(=O)O)c4)cs3)c2)c(F)cc2[nH]ccc12 [Example 92, 3-(3-((2-(3-((4-(Dimethylphosphoryl)-6-fluoro-1H-indol-5-yl)oxy)phenyl)thiazol-4-__yl)methy)phenyl)propanoic acid] | B (B: 5-10° C.)
CC(O)(c1cccc(CCC(=O)O)c1)c1c[nH]c(-c2cc(Oc3c(F)cc4[nH]ccc4c3CC(F)F)ccc2F)n1 (stereo not shown) [Example 188, 3-(3-(1-(2-(5-((4-(2,2-difluoroethyl)-6-fluoro-1H-indol-5-yl)oxy)-2-fluorophenyl)-1H-imidazol-4-yl)-1-hydroxyethyl)phenyl) propanoic acid] | B (B: 5-10° C.)
Cc1c(Oc2ccc(F)c(-c3ncc(C(C)(O)c4cccc(CCC(=O)O)c4)[nH]3)c2)c(F)cc2[nH]cc(Cl)c12 (stereo not shown) [Example 201, 3-(3-(1-(2-(5-((3-chloro-6-fluoro-4-methyl-1H-indol-5-yl)oxy)-2-fluorophenyl)-1H-imidazol-5-yl)-1-hydroxyethyl)phenyl) propanoic acid] | B (B: 5-10° C.)
Cc1c(Oc2cccc(-c3ncc(C(C)(O)c4cccc(CCC(=O)O)c4)[nH]3)c2)c(F)cc2[nH]ccc12 (stereo not shown) [Example 185, 3-(3-(1-(2-(3-((6-fluoro-4-methyl-1H-indol-5-yl)oxy)phenyl)-1H-imidazol-5-yl)-1-hydroxyethyl)phenyl) propanoic acid] | A (A: T ≥ 10° C.)
CC(O)(c1cccc(CCC(N)=O)c1)c1cnc(-c2cc(Oc3c(F)cc4[nH]ccc4c3S(C)(=O)=O)ccc2F)[nH]1 (stereo not shown) [Example 30, 3-(3-(1-(2-(2-Fluoro-5-((6-fluoro-4-(methylsulfonyl)-1H-indol-5-yl)oxy)phenyl)-1H-imidazol-5-yl)-1-hydroxyethyl)phenyl)propanamide] | B (B: 5-10° C.)
COCCOC(c1cccc(CCC(=O)O)c1)c1cnc(-c2cc(Oc3c(F)cc4[nH]ccc4c3C)ccc2F)[nH]1 (stereo not shown) [Example 236, 3-(3-((2-(2-fluoro-5-((6-fluoro-4-methyl-1H-indol-5-yl)oxy)phenyl)-1H-imidazol-5-yl)(2-methoxyethoxy)methyl)phenyl) propanoic acid] | B (B: 5-10° C.)
CC(c1ccn(-c2cccc(Oc3c(F)cc4[nH]ccc4c3S(C)(=O)=O)c2)n1)c1cccc(CCC(=O)O)c1F (single isomer, unassigned) [Example 23A, 3-(2-fluoro-3-(1-(1-(3-((6-fluoro-4-(methylsulfonyl)-1H-indol-5-yl)oxy)phenyl)-1H-pyrazol-3-yl)ethyl)phenyl)propanoic acid] | C (C: ≤5° C.)
Cc1c(Oc2ccc(F)c(-c3nc(Cc4cccc(CCC(=O)O)c4)c[nH]3)c2)ccc2[nH]ccc12 [Example 109, 3-(3-((2-(2-fluoro-5-((4-methyl-1H-indol-5-yl)oxy)phenyl)-1H-imidazol-4-yl)methyl)phenyl)propanoic acid] | B (B: 5-10° C.)
Cc1c(Oc2cccc(-c3ccc(Cc4cccc(CCC(=O)O)c4)[nH]3)c2)c(F)cc2[nH]ccc12 [Example 21, 3-(3-((5-(3-((6-Fluoro-4-methyl-1H-indol-5-yl)oxy)phenyl)-1H-pyrrol-2-yl)methyl)phenyl)propanoic acid] | C (C: ≤5° C.)
COCCOCCOC(C)(c1cccc(CCC(=O)O)c1)c1cnc(-c2cc(Oc3c(F)cc4[nH]ccc4c3C)ccc2F)[nH]1 (stereo not shown) [Example 233, 3-(3-(1-(2-(2-Fluoro-5-((6-fluoro-4-methyl-1H-indol-5-yl)oxy)phenyl)-1H-imidazol-5-yl)-1-(2-(2-methoxyethoxy)ethoxy)ethyl)phenyl)propanoic acid] | B (B: 5-10° C.)
Cc1c(Oc2cccc(-c3ncc(C(O)c4cccc(CC(F)C(=O)O)c4)[nH]3)c2)ccc2[nH]ccc12 (stereo not shown) [Example 172, 2-Fluoro-3-(3-(hydroxy(2-(3-((4-methyl-1H-indol-5-yl)oxy)phenyl)-1H-imidazol-5-yl)methyl)phenyl)propanoic acid] | A (A: T ≥ 10° C.)
COC(=O)CCc1cccc(C(C)(O)c2cnc(-c3cccc(Oc4ccc5[nH]ccc5c4CNC(C)=O)c3)[nH]2)c1 (stereo not shown) [Example 264, Methyl 3-(3-(1-(2-(3-((4-(acetamidomethyl)-1H-indol-5-yl)oxy)phenyl)-1H-imidazol-5-yl)-1-hydroxyethyl)phenyl)propanoate] | A (A: T ≥ 10° C.)
CC(O)(c1cccc(CCC(=O)O)c1)c1c[nH]c(-c2cc(Oc3c(F)cc4[nH]ccc4c3C3CC3)ccc2F)n1 (stereo not shown) [Example 193, 3-(3-(1-(2-(5-((4-cyclopropyl-6-fluoro-1H-indol-5-yl)oxy)-2-fluorophenyl)-1H-imidazol-4-yl)-1-hydroxyethyl)phenyl) propanoic acid] | B (B: 5-10° C.)
Cc1c(Oc2cnc(F)c(-c3ncc(C(C)(O)c4cccc(CCC(=O)O)c4)[nH]3)c2)c(F)cc2[nH]ccc12 (stereo not shown) [Example 207, 3-(3-(1-(2-(2-fluoro-5-((6-fluoro-4-methyl-1H-indol-5-yl)oxy)pyridin-3-yl)-1H-imidazol-5-yl)-1-hydroxyethyl)phenyl) propanoic acid] | B (B: 5-10° C.)
[2H]C([2H])([2H])C(C#N)(c1cc(F)cc(CCC(=O)O)c1)c1cnc(-c2cc(Oc3c(F)c(F)c4[nH]ccc4c3C)ccc2F)[nH]1 (stereo not shown) [Example 63, 3-(3-(1-cyano-1-(2-(5-((6,7-difluoro-4-methyl-1H-indol-5-yl)oxy)-2-fluorophenyl)-1H-imidazol-5-yl)ethyl-2,2,2-d3)-5-fluorophenyl)propanoic acid] | B (B: 5-10° C.)
Cc1c(Oc2ccc(F)c(-c3ncc(C(C)c4cccc([C@H]5C[C@H]5C(=O)O)c4F)[nH]3)c2)c(F)cc2[nH]ccc12 (single isomer, unassigned) [Example 138D, cis-2-(2-fluoro-3-(1-(2-(2-fluoro-5-((6-fluoro-4-methyl-1H-indol-5-yl)oxy)phenyl)-1H-imidazol-5-yl)ethyl)phenyl)cyclopropane-1-carboxylic acid] | C (C: ≤5° C.)

From patent US20240279220A1, “INDOLE COMPOUNDS AND METHODS OF USE” (Genzyme Corporation, priority 2021, published 2024)
